From patent US9598459B2, “Pharmaceutical compositions and methods” (priority 2015, dated 2017)
Several values for one entry are separate records, joined by “and”; a condition that tells them apart may be missing. Equal entries are not always repeated.

Tests used:
HG23 = conditions: human
[1] = Toxicity in RAW267.4 cells (neutral red); conditions: mouse, RAW267.4 cells, CC50, Neutral Red (Toxicity), Example 11
cytosolic GRs = target: T1, cytosolic GRs (Homo sapiens, UniProt P04150); assay: Binding to cytosolic glucocorticoid receptors
T1 sequence (P04150 1-777): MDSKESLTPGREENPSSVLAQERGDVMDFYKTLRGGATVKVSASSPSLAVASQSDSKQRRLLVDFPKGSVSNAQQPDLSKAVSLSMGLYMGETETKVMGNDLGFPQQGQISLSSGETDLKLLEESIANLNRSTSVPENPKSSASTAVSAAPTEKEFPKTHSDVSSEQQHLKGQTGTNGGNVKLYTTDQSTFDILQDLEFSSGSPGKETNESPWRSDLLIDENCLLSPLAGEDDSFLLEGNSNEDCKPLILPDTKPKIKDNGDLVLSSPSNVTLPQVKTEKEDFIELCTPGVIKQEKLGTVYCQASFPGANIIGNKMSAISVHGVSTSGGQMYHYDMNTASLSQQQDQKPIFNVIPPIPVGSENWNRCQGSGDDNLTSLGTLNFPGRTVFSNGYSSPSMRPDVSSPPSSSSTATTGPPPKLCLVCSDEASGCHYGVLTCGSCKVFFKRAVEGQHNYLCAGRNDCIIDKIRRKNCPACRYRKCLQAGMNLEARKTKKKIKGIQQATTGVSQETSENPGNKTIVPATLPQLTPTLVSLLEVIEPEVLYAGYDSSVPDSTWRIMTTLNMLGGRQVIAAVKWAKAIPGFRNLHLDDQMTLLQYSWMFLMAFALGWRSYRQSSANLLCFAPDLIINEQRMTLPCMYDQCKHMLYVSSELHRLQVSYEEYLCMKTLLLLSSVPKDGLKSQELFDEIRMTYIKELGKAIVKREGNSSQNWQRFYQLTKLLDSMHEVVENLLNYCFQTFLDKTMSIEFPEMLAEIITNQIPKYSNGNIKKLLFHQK

[2] = Cytotoxicity on primary human foreskin fibroblasts; conditions: human
Tacaribe TRVL11573 = assay: microbe, parasite or virus in culture; assay type: cell-based, Tacaribe virus; conditions: Mammarenavirus tacaribeense, Vero
[3] = Cytotoxicity on RD host cells; assay type: cell-based; conditions: human, RD cells

Row | Structure (SMILES) | CC50 (HuH-7) | CC50 (HG23) | CC50 [1] | selectivity ratio (GR/PR) (cytosolic GRs) | CC50 ([2]; primary HFF-1 human foreskin fibroblasts, CC50) | CC50 ([2]; primary HFF-1 human foreskin fibroblasts, CC50, Cytotoxicity control, Primary HFF-1, CellTiter-Glo) | CC50 ([2]; primary human foreskin fibroblasts (HFF / HFF-1), CC50, HFF / HFF-1 primary cells) | CC50 ([2]; primary human foreskin fibroblasts (HFF-1), CC50, Herpes simplex virus type 1 screen, Primary HFF-1, CellTiter-Glo) | EC50 (Tacaribe TRVL11573) | CC50 ([3]; Cytotoxicity 50% CC50, Enterovirus D68 screen, Tables 5-6) | CC50 ([3]; Enterovirus 68 screen, Table 4, read-out: CC50) | CC50 ([3]; Enterovirus D68 screen, Neutral red, read-out: CC50) | CC50 ([3]; Enterovirus D68 screen, Visual, read-out: CC50)
1 | CC#CC1(O)CCC2C3CCC4=CC(=NNC(N)=S)CCC4=C3C(c3ccc4c(c3)OCO4)CC21C.CC#CC1(O)CCC2C3CCC4=CC(=O)CCC4=C3C(c3ccc4c(c3)OCO4)CC21C.CC(C)=O.CCO.O (stereo not drawn) [PT155, ⅓ (11β,17β)-17-Hydroxy-11-[3,4-(methylenedioxy)phenyl]-17-(1-propyn-1-yl)estra-4,9-dien-3-one (ORG34517)×(2EZ)-2-{(11β,17β)-17-hydroxy-11-[3,4-(methylenedioxy)phenyl]-17-(1-propyn-1-yl)estra-4,9-dien-3-ylidene}hydrazinecarbothioamide [71.8% (E), 28.2% (Z)] hemihydrate×¾% acetone× ⅛ ethanol] | 39.7 µM | – | – | – | – | – | – | – | – | – | – | – | –
2 | CC#C[C@]1(O)CC[C@H]2[C@@H]3CCC4=CC(=O)CCC4=C3[C@@H](c3ccc4c(c3)OCO4)C[C@@]21C [PT150, (11β,17β)-11-(1,3-benzodioxol-5-yl)-17-hydroxy-17-(1-propynyl)-estra-4,9-dien-3-one] | – | 8.7 µM | 33 µM | 57 | > 150 µM | > 150 µM | > 150 µM | > 150 µM | 7.2 µM and 3.1 µg/mL | 10.2 µM | 10.2 µM | 2.6 µg/mL | 3.2 µg/mL
